{"source": "patent US20060276407A1", "about": "“Methods of treating hepatitis C virus” (Schering Corporation, priority 2005, published 2006)", "key": {"[1]": {"test_system": "bicistronic subgenomic replicon (genotype 1b)", "experiment": "Bicistronic subgenomic replicon suppression, 72 hour assay in HuH-7 cells", "type": "cell-based, HCV", "conditions": "Hepatitis C virus", "description": "NS3-mediated cleavage of the HCV polyprotein releases functional viral proteins essential for viral propagation. Therefore, blockage of NS3 protease activity by compound of Formula Ia is expected to inhibit viral replication in infected host cells."}, "HCV-RNA viral load": {"test_system": "HCV-RNA viral load", "experiment": "Effect on HCV-RNA viral load, 14 days dosing of HCV positive genotype 1 interferon non responders (Example 3)", "type": "in vivo", "experimental": "Multiple escalating doses of compound of Formula Ia were administered for 14 days to HCV positive subjects who were genotype 1 Interferon-a (with or without ribavirin) non responders. In a randomized, placebo controlled, third party blind study, multiple doses of 100 mg BID, 200 mg BID, 400 mg BID, 400 mg TID, and 600 mg TID of compound of Formula Ia or placebo in a 3:1 ratio with or without food were evaluated. […]\nSerial HCV-RNA data were evaluated for antiviral activity and for the change from baseline in the serum HCV RNA levels."}}}
{"smiles": "CC(C)(C)NC(=O)N[C@H](C(=O)N1C[C@H]2[C@@H]([C@H]1C(=O)NC(CC1CCC1)C(=O)C(N)=O)C2(C)C)C(C)(C)C", "note": "(mixture of isomers) [Formula Ia, (1 R, 5S)-N-[3-Amino-1-(Cyclobutylmethyl)-2,3-Dioxopropyl]-3-[2(S)-[[[(1,1-Dimethylethyl)Amino]Carbonyl]Amino]-3,3-Dimethyl-1-Oxobutyl]-6,6-Dimethyl-3-Azabicyclo[3.1.0]Hexan-2(S)-Carboxamide]", "values": [{"measurement": "IC50", "setting": "[1]; n=25, read-out: IC50 for suppression (4-log reduction) of the replicon (converted)", "value": "~200", "unit": "nM"}, {"measurement": "IC90", "setting": "[1]; n=25, read-out: IC90 for suppression (4-log reduction) of the replicon (converted)", "value": "~400", "unit": "nM"}, {"measurement": "Viral load (HCV-RNA) reduction from baseline, average minimum reduction", "setting": "HCV-RNA viral load; 400 mg TID, 14 days", "value": 2, "unit": "logs"}, {"measurement": "HCV-RNA following discontinuation of the 14-day treatment", "setting": "HCV-RNA viral load; all patients", "value": "returned to baseline levels"}]}
